Assay results published in patent US4022895A, “Substituted phenylglycylcephalosporins” (SmithKline Corporation, priority 1975, dated 1977).
≈ marks a conversion by molar mass, not a printed value. Read-outs that look alike come from different tables or passages of the source.

What was measured:
Klebs.pneumo. 4200 = assay: In vivo activity (ED50) against Klebs.pneumo. 4200
S.aureus HH 127 = assay: In vitro antibacterial activity (MIC); assay type: cell-based; conditions: Staphylococcus aureus, HH127
Description: (§1) The compounds of this invention have antibacterial activity against Gram-positive and Gram-negative organisms. Minimum inhibitory concentrations (MIC's) ranged from 0.4 to >200 μg/ml in in vitro testing.

[1] = system: Entero. aerog. ATCC 13048; assay: In vitro antibacterial activity (MIC); assay type: cell-based
Description: as §1

Kleb. pneumo. SK 4200 = assay: In vitro antibacterial activity (MIC); assay type: cell-based
Description: as §1

Proteus morgani 179 = assay: In vitro antibacterial activity (MIC); assay type: cell-based; conditions: Proteus morgani 179, in vitro
Description: as §1

Kleb. pneumo. SK 1200 = assay: In vitro antibacterial activity (MIC); assay type: cell-based
Description: as §1

S.aureus SK 23390 = assay: In vitro antibacterial activity (MIC); assay type: cell-based; conditions: Staphylococcus aureus, SK23390
Description: as §1

S.aureus Villaluz = assay: In vitro antibacterial activity (MIC); assay type: cell-based; conditions: Staphylococcus aureus
Description: as §1

Strep. faecalis HH 34358 = assay: In vitro antibacterial activity (MIC); assay type: cell-based; conditions: Enterococcus faecalis, HH34358; Strep. faecalis HH 34358, in vitro
Description: as §1

E. coli HH 33779 = assay: In vitro antibacterial activity (MIC); assay type: cell-based; conditions: Escherichia coli, HH33779
Description: as §1

E.coli SK 12140 = assay: In vitro antibacterial activity (MIC); assay type: cell-based; conditions: Escherichia coli, SK12140
Description: as §1

E.coli 12140 = assay: In vivo activity (ED50) against E.coli 12140
Shig. paradys HH 112 = assay: In vitro antibacterial activity (MIC); assay type: cell-based; conditions: Shig. paradys HH 112, in vitro; read-out: MIC
Description: as §1

[2] = po, Klebs.pneumo. 4200, p.o., read-out: ED50
[3] = Entero. aerog. ATCC 13048, in vitro, read-out: MIC
[4] = Kleb. pneumo. SK 1200, in vitro, read-out: MIC
[5] = E. coli HH 33779, in vitro, read-out: MIC
[6] = Escherichia coli, 12140, po, E.coli 12140, p.o.
[7] = Escherichia coli, 12140, sc, E.coli 12140, s.c.
[8] = sc, Klebs.pneumo. 4200, s.c., read-out: ED50
[9] = S.aureus HH 127, in vitro, read-out: MIC
[10] = Kleb. pneumo. SK 4200, in vitro, read-out: MIC
[11] = S.aureus SK 23390, in vitro, read-out: MIC
[12] = E.coli SK 12140, in vitro, read-out: MIC

Row | SMILES | ED50 (Klebs.pneumo. 4200; [2]) [mg/kg] | MIC [1, 3] [µg/mL] | MIC (Proteus morgani 179; read-out: MIC) [µg/mL] | MIC (Kleb. pneumo. SK 1200; [4]) [µg/mL] | MIC (S.aureus Villaluz) [µg/mL] | MIC (Strep. faecalis HH 34358) [µg/mL] | MIC (E. coli HH 33779; [5]) [µg/mL] | ED50 (E.coli 12140; [6]) [mg/kg] | ED50 (E.coli 12140; [7]) [mg/kg] | ED50 (Klebs.pneumo. 4200; [8]) [mg/kg] | MIC (S.aureus HH 127; [9]) [µg/mL] | MIC (Kleb. pneumo. SK 4200; [10]) [µg/mL] | MIC (S.aureus SK 23390; [11]) [µg/mL] | MIC (E.coli SK 12140; [12]) [µg/mL] | further results
1 | CC1=C(C(=O)O)N2C(=O)C(NC(=O)[C@H](N)c3ccc(SCC(=O)O)cc3)C2SC1 (stereo partly drawn) [compound 99316, 7-[D-α-Amino-α-(4'-carboxymethylthiophenyl)acetamido]-3-desacetoxycephalosporanic acid] | 15.5 | 50 (≈ 114 µM) | > 200 | 6.3 (≈ 14.4 µM) | 100 (≈ 229 µM) | > 200 | 50 (≈ 114 µM) | 42 | 25 |  |  |  |  |  | MIC (S.aureus HH 127): 12.5 µg/mL (≈ 28.6 µM); MIC (Kleb. pneumo. SK 4200): 12.5 µg/mL (≈ 28.6 µM); MIC (S.aureus SK 23390): 12.5 µg/mL (≈ 28.6 µM); MIC (E.coli SK 12140): 12.5 µg/mL (≈ 28.6 µM)
2 | Cc1nnc(SCC2=C(C(=O)O)N3C(=O)C(NC(=O)[C@H](N)c4ccc(NCC(=O)O)cc4)C3SC2)s1 (stereo partly drawn) [Compound No. 48536, 7-[D-α-Amino-α-(4'-carboxymethylaminophenyl)acetamido]-3-(5-methyl-1,3,4-thiadiazol-2-ylthiomethyl)-3-cephem-4-carboxylic acid] | 12.5 | 12.5 (≈ 22.7 µM) | 2.5 (≈ 4.54 µM) | 3.1 (≈ 5.63 µM) | 100 (≈ 182 µM) | 100 (≈ 182 µM) | 6.3 (≈ 11.4 µM) | 6.4 | 2 | 7.8 | 12.5 (≈ 22.7 µM) | 1.6 (≈ 2.91 µM) | 12.5 (≈ 22.7 µM) | 3.1 (≈ 5.63 µM) | 
3 | N[C@@H](C(=O)NC1C(=O)N2C(C(=O)O)=C(CSc3c[nH]nn3)CSC12)c1ccc(SCC(=O)O)cc1 (stereo partly drawn) [Compound No. 04726, 7-[D-α-Amino-α-(4'-carboxymethylthiophenyl)-acetamido]-3-(1,2,3,-triazol-4-ylthiomethyl)-3-cephem-4-carboxylic acid] | 14.5 | 25 (≈ 46.6 µM) |  | 3.1 (≈ 5.78 µM) | 100 (≈ 186 µM) | 200 (≈ 373 µM) | 12.5 (≈ 23.3 µM) | 46 | 12.5 | 9.5 | 12.5 (≈ 23.3 µM) | 3.1 (≈ 5.78 µM) | 12.5 (≈ 23.3 µM) | 25 (≈ 46.6 µM) | MIC (Shig. paradys HH 112): 6.3 µg/mL (≈ 11.7 µM)
4 | N[C@@H](C(=O)NC1C(=O)N2C(C(=O)O)=C(CSc3c[nH]nn3)CSC12)c1ccc(OCC(=O)O)cc1 (stereo partly drawn) [Compound No. 03326, 7-[D-α-Amino-α-(4'-carboxymethoxyphenyl)acetamido]-3-(1,2,3-triazol-4-ylthiomethyl)-3-cephem-4-carboxylic acid] | 17.7 | 25 (≈ 48 µM) | 200 (≈ 384 µM) | 3.1 (≈ 5.96 µM) | 200 (≈ 384 µM) | 200 (≈ 384 µM) | 25 (≈ 48 µM) | 25 | 8.4 | 4.6 | 12.5 (≈ 24 µM) | 6.3 (≈ 12.1 µM) | 100 (≈ 192 µM) | 6.3 (≈ 12.1 µM) | 
5 | Cc1nnc(SCC2=C(C(=O)O)N3C(=O)C(NC(=O)[C@H](N)c4ccc(SCC(N)=O)cc4)C3SC2)s1 (stereo partly drawn) [Compound No. 86526, 7-[D-α-Amino-α-(4'-carbamylmethylthiophenyl)acetamido]-3-(5-methyl-1,3,4-thiadiazol-2-ylthiomethyl)-3-cephem-4-carboxylic acid] | 10 | 100 (≈ 176 µM) |  | 6.3 (≈ 11.1 µM) | 25 (≈ 44.1 µM) | 50 (≈ 88.2 µM) | 25 (≈ 44.1 µM) | 42 | 18 | 7.2 | 6.3 (≈ 11.1 µM) | 12.5 (≈ 22.1 µM) | 3.1 (≈ 5.47 µM) | 25 (≈ 44.1 µM) | 
6 | Cn1nnnc1SCC1=C(C(=O)O)N2C(=O)C(NC(=O)[C@H](N)c3ccc(SCC(=O)O)cc3)C2SC1 (stereo partly drawn) [Compound No. 70326, 7-[D-α-Amino-α-(4'-carboxymethylthiophenyl)acetamido]-3-(1-methyl-1,2,3,4-tetrazol-5-ylthiomethyl)-3-cephem-4-carboxylic acid] | 4 |  | 6.3 (≈ 11.4 µM) |  |  |  |  | 11 | 2.2 | 1.7 |  |  |  |  | ED50 (Klebs.pneumo. 4200; Klebs.pneumo. 4200, p.o.): 3 mg/kg; ED50 (Klebs.pneumo. 4200; Klebs.pneumo. 4200, s.c.): < 3 mg/kg
7 | Cc1nnc(SCC2=C(C(=O)O)N3C(=O)C(NC(=O)[C@H](N)c4ccc(OCC(=O)O)cc4)C3SC2)s1 (stereo partly drawn) [Compound No. 59216, 7-[D-α-Amino-α-(4'-carboxymethoxyphenyl)acetamido]-3-(5-methyl-1,3,4-thiadiazol-2-ylthiomethyl)-3-cephem-4-carboxylic acid] | 21.5 | 12.5 (≈ 22.7 µM) | 200 (≈ 363 µM) | 6.3 (≈ 11.4 µM) | 100 (≈ 181 µM) | 100 (≈ 181 µM) | 12.5 (≈ 22.7 µM) | 25 | 9.5 | 4.8 | 6.3 (≈ 11.4 µM) | 3.1 (≈ 5.62 µM) | 25 (≈ 45.3 µM) | 6.3 (≈ 11.4 µM) | 
8 | Cc1nnc(SCC2=C(C(=O)O)N3C(=O)C(NC(=O)[C@H](N)c4ccc(NCC(N)=O)cc4)C3SC2)s1 (stereo partly drawn) [Compound No. 72546, 7-[D-α-Amino-α-(4'-carbamylmethylaminophenyl)acetamido]-3-(5-methyl-1,3,4-thiadiazol-2-ylthiomethyl)-3-cephem-4-carboxylic acid] |  | 50 (≈ 91 µM) | > 200 | 25 (≈ 45.5 µM) | 50 (≈ 91 µM) | 50 (≈ 91 µM) | 50 (≈ 91 µM) |  |  |  |  |  |  | 25 (≈ 45.5 µM) | MIC (S.aureus HH 127): 12.5 µg/mL (≈ 22.7 µM); MIC (Kleb. pneumo. SK 4200): 12.5 µg/mL (≈ 22.7 µM); MIC (S.aureus SK 23390): 12.5 µg/mL (≈ 22.7 µM)
9 | CC1=C(C(=O)O)N2C(=O)C(NC(=O)[C@H](N)c3ccc(OCC(N)=O)cc3)C2SC1 (stereo partly drawn) [Compound No. 00036, 7-[D-α-Amino-α-(4'-carbamylmethoxyphenyl)acetamido]-3-desacetoxycephalosporanic acid] |  | 100 (≈ 238 µM) |  | 25 (≈ 59.5 µM) | 200 (≈ 476 µM) | 50 (≈ 119 µM) | 50 (≈ 119 µM) |  |  |  | 3.1 (≈ 7.37 µM) | 25 (≈ 59.5 µM) | 3.1 (≈ 7.37 µM) | 25 (≈ 59.5 µM) | MIC (Shig. paradys HH 112): 12.5 µg/mL (≈ 29.7 µM)
10 | CC1=C(C(=O)O)N2C(=O)C(NC(=O)[C@H](N)c3ccc(NCC(=O)O)cc3)C2SC1 (stereo partly drawn) [Compound No. 51436, 7-[D-α-Amino-α-(4'-carboxymethylaminophenyl)acetamido]-3-desacetoxycephalosphoranic acid] |  | 100 (≈ 238 µM) |  | 50 (≈ 119 µM) | 200 (≈ 476 µM) | 200 (≈ 476 µM) | 25 (≈ 59.5 µM) |  |  |  |  |  |  | 25 (≈ 59.5 µM) | MIC (S.aureus HH 127): 12.5 µg/mL (≈ 29.7 µM); MIC (Kleb. pneumo. SK 4200): 12.5 µg/mL (≈ 29.7 µM); MIC (S.aureus SK 23390): 12.5 µg/mL (≈ 29.7 µM); MIC (Shig. paradys HH 112): 25 µg/mL (≈ 59.5 µM)
11 | Cn1nnnc1SCC1=C(C(=O)O)N2C(=O)C(NC(=O)[C@H](N)c3ccc(OCC(N)=O)cc3)C2SC1 (stereo partly drawn) [Compound No. 32626, 7-[D-α-Amino-α-(4'-carbamylmethoxyphenyl)acetamido]-3-(1-methyl-1,2,3,4-tetrazol-5-ylthiomethyl)-3-cephem-4-carboxylic acid] | > 50 |  | 100 (≈ 187 µM) |  | 50 (≈ 93.5 µM) | 200 (≈ 374 µM) | 25 (≈ 46.8 µM) | > 50 | 8.7 | 15.5 |  | 6.3 (≈ 11.8 µM) | 6.3 (≈ 11.8 µM) |  | MIC (S.aureus HH 127): 12.5 µg/mL (≈ 23.4 µM); MIC [1]: 12.5 µg/mL (≈ 23.4 µM); MIC (Kleb. pneumo. SK 1200): 12.5 µg/mL (≈ 23.4 µM); MIC (E.coli SK 12140): 12.5 µg/mL (≈ 23.4 µM)
12 | Cc1nnc(SCC2=C(C(=O)O)N3C(=O)C(NC(=O)[C@H](N)c4ccc(SCC(=O)O)cc4)C3SC2)s1 (stereo partly drawn) [Compound No. 03616, 7-[D-α-Amino-α-(4'-carboxymethylthiophenyl)acetamido]-3-(5-methyl-1,3,4-thiadiazol-2-ylthiomethyl)-3-cephem-4-carboxylic acid] | 16 | 25 (≈ 44 µM) | 200 (≈ 352 µM) | 3.1 (≈ 5.46 µM) | 25 (≈ 44 µM) | 100 (≈ 176 µM) | 12.5 (≈ 22 µM) | 14.5 | 6.2 | 11.5 | 6.3 (≈ 11.1 µM) | 1.6 (≈ 2.82 µM) | 6.3 (≈ 11.1 µM) | 6.3 (≈ 11.1 µM) | 
13 | CC1=C(C(=O)O)N2C(=O)C(NC(=O)C(N)c3ccc(OCC(=O)O)cc3)C2SC1 (racemic) [*08016, 7-[DL-α-amino-α-(4'-carboxymethoxyphenyl)acetamido]-3-desacetoxycephalosporanic acid] |  | 100 (≈ 237 µM) |  | 25 (≈ 59.3 µM) | > 200 | > 200 | 50 (≈ 119 µM) |  |  |  | 50 (≈ 119 µM) |  | 50 (≈ 119 µM) | 50 (≈ 119 µM) | MIC (Shig. paradys HH 112): 50 µg/mL (≈ 119 µM)
14 | Cc1nnc(SCC2=C(C(=O)O)N3C(=O)C(NC(=O)[C@H](N)c4ccc(OCC(N)=O)cc4)C3SC2)s1 (stereo partly drawn) [Compound No. 71816, 7-[D-α-Amino-α-(4'-carbamylmethoxyphenyl)acetamido]-3-(5-methyl-1,3,4-thiadiazol-2-ylthiomethyl)-3-cephem-4-carboxylic acid] | 6.2 |  | 100 (≈ 182 µM) | 6.3 (≈ 11.4 µM) | 25 (≈ 45.4 µM) | 25 (≈ 45.4 µM) |  | 12.5 | 4.5 | 7.5 |  | 3.1 (≈ 5.63 µM) |  | 6.3 (≈ 11.4 µM) | MIC (Proteus morgani 179): 200 µg/mL (≈ 363 µM); MIC (E. coli HH 33779): 12.5 µg/mL (≈ 22.7 µM)
